The record followed here is PubChem BioAssay AID375 (SRMLSC, 2006).

The target in the assay is Pantothenate synthetase (Mycobacterium tuberculosis (strain ATCC 25618 / H37Rv)) (UniProt P9WIL5). As to the kind of experiment: Recombinant Mtb pantothenate synthetase (PanC) inhibitors, coupled enzyme, confirmatory (AID 375). Particulars: coupled enzyme assay, measured here: PanC IC50 repeat trials.
Sequence of Pantothenate synthetase (Mycobacterium tuberculosis (strain ATCC 25618 / H37Rv)) (P9WIL5 whole entry, looked up): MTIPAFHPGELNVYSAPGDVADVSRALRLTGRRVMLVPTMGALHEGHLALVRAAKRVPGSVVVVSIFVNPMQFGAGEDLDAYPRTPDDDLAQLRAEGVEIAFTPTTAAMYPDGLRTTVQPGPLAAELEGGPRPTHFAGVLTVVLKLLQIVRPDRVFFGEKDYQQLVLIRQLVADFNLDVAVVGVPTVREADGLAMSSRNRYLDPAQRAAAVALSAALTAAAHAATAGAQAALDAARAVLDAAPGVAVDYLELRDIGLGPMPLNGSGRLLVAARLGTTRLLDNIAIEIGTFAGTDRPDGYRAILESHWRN
As usually defined, the IC50 is the midpoint of a concentration-inhibition curve. As for `COc1ccc(OC)c(-c2cc(C(=O)Nc3cc(C)n(Cc4ccc(Cl)cc4)n3)no2)c1`, the IC50 is > 100 µM.
Take `Cc1ccc(Cn2ccc(NC(=O)c3cc(-c4ccc(F)cc4)on3)n2)cc1`: the IC50 was > 100 µM.
The figure for `Cc1ccccc1Cn1nc(C)c(NC(=O)c2noc3c2CC(C(C)(C)C)CC3)c1C` (stereo not drawn) is > 100 µM.
The figure for `Cc1ccc(Cn2ccc(NC(=O)c3cc(-c4ccc(Cl)cc4)on3)n2)cc1` is > 100 µM.
To `Cc1ccc(Cn2ccc(NC(=O)c3noc4c3CCCC4)n2)cc1` belongs > 100 µM.
Consider `Cc1ccc(Cn2ccc(NC(=O)c3cc(-c4ccccc4)on3)n2)cc1`, for which the IC50 is > 100 µM.
`COc1ccc(-c2cc(C(=O)Nc3cc(C)n(Cc4ccc(Cl)cc4)n3)no2)cc1OC`: the IC50 is > 100 µM.
The figure for `Cc1cc(NC(=O)c2cc(-c3cccs3)on2)nn1Cc1ccc(Cl)cc1` is > 100 µM; for `Cc1cc(C(=O)Nc2cc(C)n(Cc3ccc(Cl)cc3)n2)no1` it is > 100 µM.
To `Cc1ccc(Cn2ccc(NC(=O)c3cc(-c4cccs4)on3)n2)cc1` belongs > 100 µM; to `CC(C)(C)C1CCc2onc(C(=O)Nc3cnn(Cc4ccc(F)cc4)c3)c2C1` (stereo not drawn), 1.71 µM; to `Cc1ccc(Cn2ccc(NC(=O)c3cc(-c4cccc(Cl)c4)on3)n2)cc1`, > 100 µM.
Take `Cc1ccc(Cn2ccc(NC(=O)c3cc(-c4ccc(Br)cc4)on3)n2)cc1`: the IC50 is > 100 µM.
The figure for `Cc1cc(NC(=O)c2noc3c2CCCC3)nn1Cc1ccc(Cl)cc1` is > 100 µM; for `COc1ccc2c(c1)CCc1c(C(=O)Nc3ccn(Cc4ccc(C)cc4)n3)noc1-2` it is > 100 µM.
The figure for `COc1ccccc1-c1cc(C(=O)Nc2cc(C)n(Cc3ccc(Cl)cc3)n2)no1` is > 100 µM.
In the case of `Cc1ccc(Cn2ccc(NC(=O)c3cc(-c4ccco4)on3)n2)cc1`, the IC50 is > 100 µM.
The figure for `COc1ccc2c(c1)CCc1c(C(=O)Nc3cc(C)n(Cc4ccc(Cl)cc4)n3)noc1-2` is > 100 µM; for `Cc1cc(NC(=O)c2cc(-c3ccco3)on2)nn1Cc1ccc(Cl)cc1` it is > 100 µM.
As to `Cc1cc(NC(=O)c2noc3c2CCCCC3)nn1Cc1ccc(Cl)cc1`, the IC50 was > 100 µM.
To `Cc1ccccc1Cn1cc(NC(=O)c2noc3c2CC(C(C)(C)C)CC3)cn1` (stereo not drawn) belongs 2.56 µM; to `Cc1ccc(Cn2ccc(NC(=O)c3noc4c3CCCCC4)n2)cc1`, > 100 µM; to `COc1cccc(-c2cc(C(=O)Nc3cc(C)n(Cc4ccc(Cl)cc4)n3)no2)c1`, > 100 µM.
